Experimental data reported in patent publication US20220089575A1, “FARNESOID X RECEPTOR AGONISTS AND USES THEREOF” (Metacrine, Inc., priority 2017, published 2022).

target: T1, hFXR (Homo sapiens, UniProt Q96RI1); assay: In Vitro FXR Assay (TK): TK-ECRE-luc reporter in transfected CV-1 cells; type: cell-based; settings: 18 hrs, luminescence, maximum efficacy of <25% of the Fexarmine control classified as '+'
T1 construct: expressed in transfected cells; host or cells: CV-1 cells
T1 sequence (Q96RI1 1-486): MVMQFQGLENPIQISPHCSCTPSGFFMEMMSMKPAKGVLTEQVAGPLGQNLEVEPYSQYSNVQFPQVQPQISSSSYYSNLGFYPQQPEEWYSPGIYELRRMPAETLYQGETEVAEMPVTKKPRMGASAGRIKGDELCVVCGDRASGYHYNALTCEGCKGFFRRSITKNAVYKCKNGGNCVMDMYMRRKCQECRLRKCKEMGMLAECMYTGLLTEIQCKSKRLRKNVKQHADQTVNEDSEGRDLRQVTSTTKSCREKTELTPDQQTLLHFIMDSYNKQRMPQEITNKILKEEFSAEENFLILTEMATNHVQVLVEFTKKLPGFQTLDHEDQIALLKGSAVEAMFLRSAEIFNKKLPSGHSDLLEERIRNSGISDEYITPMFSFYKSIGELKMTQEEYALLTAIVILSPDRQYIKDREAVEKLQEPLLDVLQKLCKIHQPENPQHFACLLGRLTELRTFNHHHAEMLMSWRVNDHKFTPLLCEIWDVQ
T1 sequence (P19793 1-462 partner): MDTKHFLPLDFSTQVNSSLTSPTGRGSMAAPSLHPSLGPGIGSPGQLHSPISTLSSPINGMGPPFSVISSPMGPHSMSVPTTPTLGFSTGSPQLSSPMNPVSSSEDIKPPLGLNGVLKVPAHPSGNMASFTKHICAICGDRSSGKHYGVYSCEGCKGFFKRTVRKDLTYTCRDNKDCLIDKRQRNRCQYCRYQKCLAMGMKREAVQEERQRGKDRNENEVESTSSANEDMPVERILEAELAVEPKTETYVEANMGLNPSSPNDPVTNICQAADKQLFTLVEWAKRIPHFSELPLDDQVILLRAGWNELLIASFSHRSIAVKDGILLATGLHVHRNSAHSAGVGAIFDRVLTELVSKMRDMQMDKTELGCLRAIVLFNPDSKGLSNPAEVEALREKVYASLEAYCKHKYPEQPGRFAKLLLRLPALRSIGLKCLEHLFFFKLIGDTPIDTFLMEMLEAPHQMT
How it was run: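 CV-1, transient co-transfection: hFXR + hRXR + TK-ECRE-luc + pCMX-YFP; charcoal-stripped serum. 18 h post-transfection, DMSO serial dilutions of cpd added; 18 h incubation; lysis, luminescence.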

EC50, ≤ 250 nM:
CNC(=O)O[C@H]1CC[C@H](C(=O)N(C[C@H]2CC[C@H](c3ccc(OC)c(C)c3)CC2)c2cccc(-c3ccc(N(C)C)nc3)c2)CC1 [Compound 5.36, trans-4-((3-(6-(Dimethylamino)pyridine-3-yl)phenyl)((trans-4-(4-methoxy-3-methylphenyl)cyclohexyl)methyl)carbamoyl)cyclohexyl methylcarbamate]
CNC(=O)O[C@H]1CC[C@H](C(=O)N(C[C@H]2CC[C@H](c3ccc(OC)c(C)c3)CC2)c2cccc(-c3ccc(C4CC4)nc3)c2)CC1 [Compound 5.37, trans-4-((3-(6-Cyclopropylpyridin-3-yl)phenyl)((trans-4-(4-methoxy-3-methylphenyl)cyclohexyl)methyl)carbamoyl)cyclohexyl methylcarbamate]
CNC(=O)O[C@H]1CC[C@H](C(=O)N(C[C@H]2CC[C@H](c3ccc(OC)c(C)c3)CC2)c2cccc(-c3cnc(N(C)C)nc3)c2)CC1 [Compound 5.38, trans-4-((3-(2-(Dimethylamino)pyrimidin-5-yl)phenyl)((trans-4-(4-methoxy-3-methylphenyl)cyclohexyl)methyl)carbamoyl)cyclohexyl methylcarbamate]
CNC(=O)O[C@H]1CC[C@H](C(=O)N(C[C@H]2CC[C@H](c3ccc(OC)c(C#N)c3)CC2)c2cc(-c3coc(C4CC4)n3)ccn2)CC1 [Compound 5.39, trans-4-(((trans-4-(3-Cyano-4-methoxyphenyl)cyclohexyl)methyl)(4-(2-cyclopropyloxazol-4-yl)pyridine-2-yl)carbamoyl)cyclohexyl methylcarbamate]
CNC(=O)O[C@H]1CC[C@H](C(=O)N(C[C@H]2CC[C@H](c3ccc(OC)c(C)c3)CC2)c2cc(-c3ccc(N(C)C)nc3)ccn2)CC1 [Compound 5.40, trans-4-((6-(Dimethylamino)-[3,4′-bipyridin]-2′-yl)((trans-4-(4-methoxy-3-methylphenyl)cyclohexyl)methyl)carbamoyl)cyclohexyl methylcarbamate]
CNC(=O)O[C@H]1CC[C@H](C(=O)N(C[C@H]2CC[C@H](c3ccc(OC)c(C)n3)CC2)c2cccc(-c3ccc(N(C)C)nc3)c2)CC1 [Compound 5.41, trans-4-((3-(6-((Dimethylamino)pyridine-3-yl)phenyl)((trans-4-(5-methoxy-6-methylpyridin-2-yl)cyclohexyl)methyl)carbamoyl)cyclohexyl methylcarbamate]
CNC(=O)O[C@H]1CC[C@H](C(=O)N(C[C@H]2CC[C@H](c3ccc(OC)c(C#N)n3)CC2)c2cccc(-c3coc(C4CC4)n3)c2)CC1 [Compound 5.42, trans-4-(((trans-4-(6-Cyano-5-methoxypyridin-2-yl)cyclohexyl)methyl)(3-(2-cyclopropyloxazol-4-yl)phenyl)carbamoyl)cyclohexyl methylcarbamate]
CNC(=O)O[C@H]1CC[C@H](C(=O)N(C[C@H]2CC[C@H](c3ccc(OC)c(C)n3)CC2)c2cc(-c3coc(C(C)C)n3)ccn2)CC1 [Compound 5.43, trans-4-((4-(2-Isopropyloxazol-4-yl)pyridine-2-yl)((trans-4-(5-methoxy-6-methylpyridin-2-yl)cyclohexyl)methyl)carbamoyl)cyclohexyl methylcarbamate]
CNC(=O)O[C@H]1CC[C@H](C(=O)N(C[C@H]2CC[C@H](c3ccc(OC)c(C#N)n3)CC2)c2cc(-c3coc(C4CC4)n3)ccn2)CC1 [Compound 5.44, trans-4-(((trans-4-(6-Cyano-5-methoxypyridin-2-yl)cyclohexyl)methyl)(4-(2-cyclopropyloxazol-4-yl)pyridine-2-yl)carbamoyl)cyclohexyl methylcarbamate]
CNC(=O)O[C@H]1CC[C@H](C(=O)N(C[C@H]2CC[C@H](c3ccc(OC)c(C#N)c3)CC2)c2cc(-c3coc(C(C)C)n3)ccn2)CC1 [Compound 5.45, trans-4-(((trans-4-(3-Cyano-4-methoxyphenyl)cyclohexyl)methyl)(4-(2-isopropyloxazol-4-yl)pyridine-2-yl)carbamoyl)cyclohexyl methylcarbamate]
CNC(=O)O[C@H]1CC[C@H](C(=O)N(C[C@H]2CC[C@H](c3ccc(OC)c(C#N)n3)CC2)c2cccc(-c3coc(C(C)C)n3)c2)CC1 [Compound 5.46, trans-4-(((trans-4-(6-Cyano-5-methoxypyridin-2-yl)cyclohexyl)methyl)(3-(2-isopropyloxazol-4-yl)phenyl)carbamoyl)cyclohexyl methylcarbamate]
CCNC(=O)O[C@H]1CC[C@H](C(=O)N(C[C@H]2CC[C@H](c3ccc(OC)c(C)n3)CC2)c2cc(-c3coc(C4CC4)n3)ccn2)CC1 [Compound 5.47, trans-4-((4-(2-Cyclopropyloxazol-4-yl)pyridine-2-yl)((trans-4-(5-methoxy-6-methylpyridin-2-yl)cyclohexyl)methyl)carbamoyl)cyclohexyl ethylcarbamate]
COc1ccc([C@H]2CC[C@H](CN(c3cc(-c4coc(C5CC5)n4)ccn3)C(=O)[C@H]3CC[C@H](OC(N)=O)CC3)CC2)nc1C [Compound 5.48, trans-4-((4-(2-Cyclopropyloxazol-4-yl)pyridine-2-yl)((trans-4-(5-methoxy-6-methylpyridin-2-yl)cyclohexyl)methyl)carbamoyl)cyclohexyl carbamate]
COC(=O)O[C@H]1CC[C@H](C(=O)N(C[C@H]2CC[C@H](c3ccc(OC)c(C)n3)CC2)c2cc(-c3coc(C4CC4)n3)ccn2)CC1 [Compound 5.49, trans-4-((4-(2-Cyclopropyloxazol-4-yl)pyridine-2-yl)((trans-4-(5-methoxy-6-methylpyridin-2-yl)cyclohexyl)methyl)carbamoyl)cyclohexyl methyl carbonate]
CNC(=O)O[C@H]1CC[C@H](C(=O)N(C[C@H]2CC[C@H](c3cnc(OC)c(C)c3)CC2)c2cc(-c3coc(C4CC4)n3)ccn2)CC1 [Compound 5.50, trans-4-((4-(2-Cyclopropyloxazol-4-yl)pyridine-2-yl)((trans-4-(6-methoxy-5-methylpyridin-3-yl)cyclohexyl)methyl)carbamoyl)cyclohexyl methylcarbamate]
CCc1nc(-c2ccnc(N(C[C@H]3CC[C@H](c4ccc(OC)c(C)n4)CC3)C(=O)[C@H]3CC[C@H](OC(=O)NC)CC3)c2)co1 [Compound 5.51, trans-4-((4-(2-Ethyloxazol-4-yl)pyridin-2-yl)((trans-4-(5-methoxy-6-methylpyridin-2-yl)cyclohexyl)methyl)carbamoyl)cyclohexyl methylcarbamate]
CNC(=O)O[C@]1(C)CC[C@@H](C(=O)N(C[C@H]2CC[C@H](c3ccc(OC)c(C)c3)CC2)c2cccc(-c3cnn(C(C)C)c3)c2)CC1 [Compound 5.52, trans-4-((3-(1-Isopropyl-1H-pyrazol-4-yl)phenyl)((trans-4-(4-methoxy-3-methylphenyl)cyclohexyl)methyl)carbamoyl)-1-methylcyclohexyl methylcarbamate]
CNC(=O)O[C@]1(C)CC[C@H](C(=O)N(C[C@H]2CC[C@H](c3ccc(OC)c(C)c3)CC2)c2cccc(-c3cnn(C(C)C)c3)c2)CC1 [Compound 5.53, cis-4-((3-(1-Isopropyl-1H-pyrazol-4-yl)phenyl)(trans-4-(4-methoxy-3-methylphenyl)cyclohexyl)methyl)carbamoyl)-1-methylcyclohexyl methylcarbamate]
COc1ccc([C@H]2CC[C@H](CN(c3cc(-c4coc(C(C)C)n4)ccn3)C(=O)[C@H]3CC[C@H](OC(=O)N4CCOCC4)CC3)CC2)nc1C [Compound 6, trans-4-((4-(2-Isopropyloxazol-4-yl)pyridine-2-yl)((trans-4-(5-methoxy-6-methylpyridin-2-yl)cyclohexyl)methyl)carbamoyl)cyclohexyl morpholine-4-carboxylate]
CN(C)c1ccc([C@H]2CC[C@H](CN(c3cccc(-c4cnc(C5CC5)s4)c3)C(=O)[C@H]3CC[C@H](OC(=O)NCCO)CC3)CC2)cn1 [Compound 6.01, 4-((3-(2-Cyclopropylthiazol-5-yl)phenyl) ((trans-4-(6-(dimethylamino)pyridin-3-yl)cyclohexyl)methyl)carbamoyl) cyclohexyl (2-hydroxyethyl)trans-carbamate]
